Bounds are passed on as bounds.

For series [1], the target named is T1, PI3Kα E545K (Homo sapiens, UniProt P42336, E545K). Briefly: PI3Kα E545K mutant in vitro cell based assay, MCF-7 cells. To be noted: MCF-7 cell line, 0% FBS, 3 hours treatment. In outline:
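MCF-7 cells (PI3Kα E545K) in serum-free MEM with 1 μg/mL insulin were treated 3 h with 10-point 1:3 dilutions in 0.3% DMSO. Lysates were read by SureFire AlphaLisa. IC50 was fitted by 4-parameter logistic to % inhibition relative to DMSO (max) and 1 μM GDC-0032 (min), duplicates averaged.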

Another series addresses T2, PI3Kα H1047R (Homo sapiens, UniProt P42336, H1047R).
T2 construct: The MDA-MB-453 (ATCC-HTB-131) cell line (PI3Kα H1047R); host or cells: MDA-MB-453
Briefly: PI3Kα H1047R mutant in vitro cell based assay, MDA-MB-453 cells (AlphaLisa SureFire). To be noted: MDA-MB-453 cell line, 0% FBS, 3 hours treatment. From the text: PI3K-Alpha Kinase (PI3Kα) Activity: Wild-Type PI3Kα, H1047R Mutant PI3Kα, and E545K Mutant PI3Kα In Vitro Cell Based Assays and Determination of IC50 Values for Inhibitors
The MDA-MB-453 (ATCC-HTB-131) cell line (PI3Kα H1047R) and MCF-7 (ATCC-HTB-22) cell line (PI3Kα E545K), MDA-MB-361 (ATCC-HTB-27) cell line (PI3Kα E545K), and SKBR3 (ATCC-HTB-30) cell line (wild type PI3Kα) were obtained from the American Type Culture Collection (Manassas, VA). MDA-MB-453 cells were maintained in Dulbecco's Modified Eagle Media (DMEM, Gibco 12430) supplemented with 10% Fetal Bovine Serum, heat inactivated (FBS HI, Gibco 10082), 1× non-essential amino acids (NEAA, Gibco 11140), 1 mM sodium pyruvate (Gibco 11360) and 1× Anti-Anti (Gibco 15240). MCF-7 cells were maintained in Minimum Essential Media (MEM) (Gibco 11095) supplemented with 10% Fetal Bovine Serum, heat inactivated (FBS HI, Gibco 10082), 1× non-essential amino acids (NEAA, Gibco 11140), 1 mM sodium pyruvate (Gibco 11360), 1× Anti-Anti (Gibco 15240) and 10 μg/mL human insulin (Sigma I 9278). MDA-MB-361 cells were maintained in Dulbecco's Modified Eagle Media (DMEM, Gibco 12430) supplemented with 20% Fetal Bovine Serum, heat inactivated (FBS HI, Gibco 10082), 1× non-essential amino acids (NEAA, Gibco 11140), 1 mM sodium pyruvate (Gibco 11360) and 1× Anti-Anti (Gibco 15240). SKBR3 cells were maintained in McCoy's 5A (Gibco 16600) supplemented with 10% Fetal Bovine Serum, heat inactivated (FBS HI, Gibco 10082), and 1× Anti-Anti (Gibco 15240). Cultures were maintained in a humidified incubator at 37° C. under 5% CO2/95% air.
For compound testing in 0% FBS, MDA-MB-453, MCF-7 and SKBR3 cells were seeded at a density of 1.5×10^4, 1.0×10^4, and 1.0×10^4 cells, respectively, per well in white 384-well plates in 20 μl of Minimum Essential Media (MEM) assay media with 1×NEAA, 1 mM sodium pyruvate, and 1 μg/mL human insulin (Sigma 19278) (Assay Medium); while MDA-MB-361 cells were seeded at a density of 1.5×10^4 per well in white 384-well plates in 20 μl Assay Medium without insulin. After plating, cells were allowed to attach overnight. Compounds dissolved in 10 mM stock solutions in DMSO were serially diluted 1:3 in DMSO to generate a 10-point dilution series and plated using an acoustic liquid handler system (Echo 550 Series Liquid Handler, Labcyte). A 5× intermediate compound dilution plate in MEM with 1×NEAA and 1 mM sodium pyruvate (150 μM starting compound concentration in 1.5% DMSO) was then prepared. Five μl of the intermediate serially diluted compounds were added to the cell plate to final concentrations ranging from […] in 0.3% DMSO. 0.3% DMSO alone was used to establish the maximum (MAX) signal and GDC-0032 at a final concentration of 1 μM was used as a reference compound for the minimum (MIN) signal. After 3 hours treatment, the medium was removed, and the cells were lysed in 10 μL of 1× SureFire Lysis buffer with shaking for 10 minutes at room temperature. The Acceptor Mix (Reaction Buffer 1+Reaction Buffer 2+Activation Buffer+SureFire Ultra Acceptor Beads) was prepared by diluting Activation buffer 25-fold in combined Reaction Buffer 1 and Reaction Buffer 2.
The Acceptor beads were diluted 50-fold in the combined Reaction Buffers. Five μL of Acceptor Mix was added to each well, the plate was sealed and covered with foil and incubated for 1 hour at room temperature. The Donor Mix (dilution buffer+SureFire Ultra Donor Beads) was prepared by diluting Donor Beads 50-fold in dilution buffer. Five μL of the Donor Mix was added to each well and the plate sealed and covered with foil and incubated for 1-2 hours at room temperature in the dark. The plates were read on a Neo2 plate reader instrument from Biotek using standard AlphaLisa settings.
Compounds were tested in duplicate and the % inhibition at each compound concentration was used to generate two dose response curves. One IC50 was generated using average % inhibition at each compound concentration. […]
In general terms: Bead proximity is the source of the signal in Alpha formats.

The target in series [2] is T1, PI3Kα E545K. The experiment in a line: PI3Kα E545K mutant in vitro cell based assay, MDA-MB-361 cells. Set-up: MDA-MB-361 (ATCC-HTB-27) cell line (PI3Kα E545K); host or cells: MDA-MB-361. Particulars: MDA-MB-361 cell line, 0% FBS, no insulin, 3 hours treatment. In outline: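 MDA-MB-361 cells (PI3Kα E545K) seeded in serum-free MEM assay medium without insulin, attached overnight, then treated 3 h with compound (10-point 1:3 series, 0.3% DMSO). AlphaLISA SureFire readout of lysates. IC50 by 4-parameter fit, normalized to DMSO (max) and 1 μM GDC-0032 (min).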

Series [3] in a line: Metabolic stability and intrinsic clearance in human liver microsomes (MICS). It counts as in vitro ADME. Particulars: human, microsomes, pH 7.4. The procedure, abridged: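 Test compound (1 μM final) incubated at 37° C with liver microsomes (0.5 mg/mL protein) in 100 mM phosphate buffer pH 7.4, with 1 mM NADPH or without cofactor; sampled at 0.5–60 min, quenched with cold acetonitrile. Parent remaining quantified by LC-MS/MS; t1/2 from ln-% remaining slope converted to CLint (μL/min/mg protein).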
For orientation: Microsomes from liver hold many membrane-bound enzymes, among them those of drug oxidation.

T2 sequence (P42336 whole entry H1047R): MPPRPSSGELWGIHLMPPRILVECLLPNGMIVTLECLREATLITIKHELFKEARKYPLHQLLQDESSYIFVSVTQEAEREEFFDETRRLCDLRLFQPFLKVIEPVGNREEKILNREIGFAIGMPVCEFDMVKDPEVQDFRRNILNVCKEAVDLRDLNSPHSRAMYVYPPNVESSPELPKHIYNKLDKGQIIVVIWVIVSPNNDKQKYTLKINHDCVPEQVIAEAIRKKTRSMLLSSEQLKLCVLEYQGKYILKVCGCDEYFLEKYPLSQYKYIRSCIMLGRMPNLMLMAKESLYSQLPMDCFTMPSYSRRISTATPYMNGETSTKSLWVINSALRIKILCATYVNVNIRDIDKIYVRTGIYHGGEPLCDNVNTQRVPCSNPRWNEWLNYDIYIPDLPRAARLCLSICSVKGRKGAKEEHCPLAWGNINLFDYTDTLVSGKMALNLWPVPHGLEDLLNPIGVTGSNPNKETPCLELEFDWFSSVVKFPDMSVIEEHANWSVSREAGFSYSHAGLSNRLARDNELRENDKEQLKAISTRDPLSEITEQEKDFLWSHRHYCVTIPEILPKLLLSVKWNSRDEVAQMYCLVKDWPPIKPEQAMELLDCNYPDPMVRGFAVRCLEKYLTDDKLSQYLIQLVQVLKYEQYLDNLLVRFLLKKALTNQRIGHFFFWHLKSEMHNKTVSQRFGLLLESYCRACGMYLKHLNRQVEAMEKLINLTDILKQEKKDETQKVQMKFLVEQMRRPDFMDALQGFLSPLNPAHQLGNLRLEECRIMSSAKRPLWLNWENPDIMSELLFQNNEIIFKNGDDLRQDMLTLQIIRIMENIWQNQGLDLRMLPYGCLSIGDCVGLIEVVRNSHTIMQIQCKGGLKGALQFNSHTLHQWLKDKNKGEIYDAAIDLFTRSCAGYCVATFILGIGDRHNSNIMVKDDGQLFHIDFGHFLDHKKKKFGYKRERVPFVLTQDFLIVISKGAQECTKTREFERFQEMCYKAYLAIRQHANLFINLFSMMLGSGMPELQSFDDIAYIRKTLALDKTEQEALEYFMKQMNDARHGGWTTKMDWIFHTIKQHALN
T2 sequence (P27986 whole entry partner): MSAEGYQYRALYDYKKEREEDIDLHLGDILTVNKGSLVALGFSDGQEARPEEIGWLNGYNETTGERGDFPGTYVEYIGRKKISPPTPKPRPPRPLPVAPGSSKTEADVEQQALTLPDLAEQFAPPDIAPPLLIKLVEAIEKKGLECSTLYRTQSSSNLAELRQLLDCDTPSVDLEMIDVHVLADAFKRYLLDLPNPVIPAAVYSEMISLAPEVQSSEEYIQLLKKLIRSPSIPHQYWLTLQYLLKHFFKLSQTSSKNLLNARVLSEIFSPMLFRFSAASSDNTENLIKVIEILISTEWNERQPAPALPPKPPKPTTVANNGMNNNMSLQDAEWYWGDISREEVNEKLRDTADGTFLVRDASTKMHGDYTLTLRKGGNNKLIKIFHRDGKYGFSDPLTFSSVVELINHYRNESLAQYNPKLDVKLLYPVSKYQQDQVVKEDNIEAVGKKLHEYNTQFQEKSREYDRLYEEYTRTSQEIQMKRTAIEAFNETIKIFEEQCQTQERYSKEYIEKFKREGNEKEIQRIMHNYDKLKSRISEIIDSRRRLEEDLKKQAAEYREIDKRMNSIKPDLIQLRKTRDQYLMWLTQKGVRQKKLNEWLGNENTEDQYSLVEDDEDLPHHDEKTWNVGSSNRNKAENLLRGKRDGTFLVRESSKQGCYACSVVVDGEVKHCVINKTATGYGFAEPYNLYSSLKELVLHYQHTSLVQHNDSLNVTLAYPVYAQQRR
T1 sequence (P42336 whole entry E545K): as the sequence (P42336 whole entry H1047R) above, with E545K, R1047H counted along it
T1 sequence (P27986 whole entry partner): as the sequence (P27986 whole entry partner) above

As for `Cc1cc([C@@H](C)Oc2ccc(Cl)nc2C(N)=O)c2oc(-c3cc(C)c4nn(C)cc4c3)c(C)c(=O)c2c1` [Example 45C, 6-Chloro-3-[(1R)-1-[2-(2,7-dimethylindazol-5-yl)-3,6-dimethyl-4-oxo-chromen-8-yl]ethoxy]pyridine-2-carboxamide], the IC50 (commonly the concentration that inhibits the measured activity by half) against PI3Kα E545K [1] is less than 0.5 µM; at PI3Kα H1047R, less than 0.1 µM.
The like results for `Cc1cc([C@@H](C)Oc2cccnc2S(N)(=O)=O)c2oc(-c3ccccc3)c(C)c(=O)c2c1` [Example 94C, 3-[(1R)-1-(3,6-Dimethyl-4-oxo-2-phenyl-chromen-8-yl)ethoxy]pyridine-2-sulfonamide] were, in that order, less than 0.5 µM and less than 0.1 µM.
As to `Cc1cc([C@@H](C)Oc2ccc(Cl)nc2C(N)=O)c2oc(-c3ccc4nc(C)sc4c3)c(C)c(=O)c2c1` [Example 68A, 6-Chloro-3-[(1R)-1-[3,6-dimethyl-2-(2-methyl-1,3-benzothiazol-6-yl)-4-oxo-chromen-8-yl]ethoxy]pyridine-2-carboxamide], the IC50 was less than 0.5 µM against PI3Kα E545K [2], less than 0.5 µM against PI3Kα E545K [1] and less than 0.1 µM on PI3Kα H1047R.
Turning to `Cc1cc([C@@H](C)Oc2ccc(Cl)nc2C)c2oc(-c3ccccc3)c(C)c(=O)c2c1` [Example 1, 8-[(1R)-1-[(6-Chloro-2-methyl-3-pyridyl)oxy]ethyl]-3,6-dimethyl-2-phenyl-chromen-4-one], the IC50 is less than 0.5 µM at PI3Kα E545K [1] and less than 0.1 µM against PI3Kα H1047R.
The like results for `Cc1cc(C(C)Oc2ccc(Cl)nc2C)c2oc(-c3cccnc3)c(C)c(=O)c2c1` (single isomer, unassigned; isomer 2) [Example 10, 8-[1-[(6-Chloro-2-methyl-3-pyridyl)oxy]ethyl]-3,6-dimethyl-2-(3-pyridyl)chromen-4-one, Isomer 2] were, in that order, less than 0.5 µM and less than 0.1 µM.
Take `Cc1cc([C@@H](C)Oc2ccc(Cl)nc2S(N)(=O)=O)c2oc(-c3ccc(S(C)(=O)=O)cc3)c(C)c(=O)c2c1` [Example 31C, 6-Chloro-3-[(1R)-1-[3,6-dimethyl-2-(4-methylsulfonylphenyl)-4-oxo-chromen-8-yl]ethoxy]pyridine-2-sulfonamide]: the IC50 was less than 0.5 µM on PI3Kα E545K [2], less than 0.5 µM at PI3Kα E545K [1] and less than 0.1 µM at PI3Kα H1047R.
On to `Cc1cc([C@@H](C)Oc2ccc(Cl)nc2S(N)(=O)=O)c2oc(C3CC3)c(C)c(=O)c2c1` [Example 74A, 6-Chloro-3-[(1R)-1-(2-cyclopropyl-3,6-dimethyl-4-oxo-chromen-8-yl)ethoxy]pyridine-2-sulfonamide], for which the IC50 on PI3Kα E545K [2] is less than 0.5 µM; against PI3Kα E545K [1] it was less than 0.5 µM; against PI3Kα H1047R it was less than 0.1 µM.
For the compound `Cc1cc([C@@H](C)Oc2ccc(Cl)nc2S(C)(=O)=O)c2oc(-c3cnn(CCO)c3)c(C)c(=O)c2c1` [Example 29B, 8-[(1R)-1-[(6-Chloro-2-methylsulfonyl-3-pyridyl)oxy]ethyl]-2-[1-(2-hydroxyethyl)pyrazol-4-yl]-3,6-dimethyl-chromen-4-one], the IC50 is less than 0.5 µM against PI3Kα E545K [2], less than 0.5 µM against PI3Kα E545K [1] and less than 0.1 µM at PI3Kα H1047R.
For `Cc1cc([C@@H](C)Oc2ccc(Cl)nc2C(N)=O)c2oc(-c3ccc4nn(C)cc4c3)cc(=O)c2c1` [Example 52A, 6-Chloro-3-[(1R)-1-[6-methyl-2-(2-methylindazol-5-yl)-4-oxo-chromen-8-yl]ethoxy]pyridine-2-carboxamide], the concentration for half-maximal inhibition (IC50) on PI3Kα E545K [2] was less than 0.5 µM; on PI3Kα E545K [1], less than 0.5 µM; at PI3Kα H1047R, less than 0.1 µM.
Turning to `Cc1cc([C@@H](C)Oc2ccc(Cl)nc2S(N)(=O)=O)c2oc(-c3cccnc3)c(C)c(=O)c2c1` [Example 42A, 6-Chloro-3-[(1R)-1-[3,6-dimethyl-4-oxo-2-(3-pyridyl)chromen-8-yl]ethoxy]pyridine-2-sulfonamide], the intrinsic metabolic clearance (microsomal CLint) (commonly the rate of metabolic loss divided by the concentration) at 1 μM in series [3] was less than 50 µL/min/mg. On PI3Kα H1047R, this compound had an IC50 of less than 0.1 µM.
Taken in the same sequence, the figures for `Cc1cc([C@@H](C)Oc2ccc(Cl)nc2-c2noc(=O)[nH]2)c2oc(-c3cnc4c(c3)OCO4)c(C)c(=O)c2c1` [Example 39A, 3-[6-Chloro-3-[(1R)-1-[2-([1,3]dioxolo[4,5-b]pyridin-6-yl)-3,6-dimethyl-4-oxo-chromen-8-yl]ethoxy]-2-pyridyl]-4H-1,2,4-oxadiazol-5-one] were less than 50 µL/min/mg and less than 0.1 µM.
Take `Cc1cc([C@@H](C)Oc2ccc(Cl)nc2C(N)=O)c2oc(-c3ccc4[nH]ncc4c3)c(C)c(=O)c2c1` [Example 22B, 6-Chloro-3-[(1R)-1-[2-(1H-indazol-5-yl)-3,6-dimethyl-4-oxo-chromen-8-yl]ethoxy]pyridine-2-carboxamide]: the figures for the IC50 against PI3Kα E545K [2], against PI3Kα E545K [1] and against PI3Kα H1047R were less than 0.5 µM, less than 0.5 µM and less than 0.1 µM, respectively.
Regarding `Cc1cc([C@@H](C)Oc2ccc(Cl)nc2C(N)=O)c2oc(-c3cnn4c3OCC4(C)C)c(C)c(=O)c2c1` [Example 65C, 6-Chloro-3-[(1R)-1-[2-(3,3-dimethyl-2H-pyrazolo[5,1-b]oxazol-7-yl)-3,6-dimethyl-4-oxo-chromen-8-yl]ethoxy]pyridine-2-carboxamide], the IC50 was less than 0.5 µM against PI3Kα E545K [2] and less than 0.1 µM on PI3Kα H1047R.
On to `Cc1cc([C@@H](C)Oc2ccc(Cl)nc2S(C)(=O)=O)c2oc(-c3cnn(C)c3)c(C)c(=O)c2c1` [Example 146A, 8-[(1R)-1-[(6-Chloro-2-methylsulfonyl-3-pyridyl)oxy]ethyl]-3,6-dimethyl-2-(1-methylpyrazol-4-yl)chromen-4-one], for which the IC50 against PI3Kα E545K [2] is less than 0.5 µM; on PI3Kα E545K [1], less than 0.5 µM; on PI3Kα H1047R, less than 0.1 µM.
As to `Cc1cc([C@@H](C)Oc2ccc(Cl)nc2C(N)=O)c2oc(-c3cc(F)c4nc(C)cn4c3)c(C)c(=O)c2c1` [Example 38C], the IC50 was less than 0.5 µM against PI3Kα E545K [2] and less than 0.1 µM against PI3Kα H1047R.
